Drawing on patent US20120202794A1 (priority 2011, published 2012), this text covers EC90 and CC90 for 27 molecules.

One data set has as its system HCV Replicon 1b. As to the kind of experiment: HCV inhibition assay, HCV replicon 1b (Clone A or ET-lunet cells; RT-PCR or luciferase reporter). The format is cell-based. Particulars: Hepatitis C virus, 96 h, read-out: Replicon 1b potency EC90. An outline of the steps:
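Inhibition read either as luciferase signal (ET replicon) or as HCV 5′-NTR RNA by RT-PCR relative to rRNA, % = (1−2^−ΔΔCt)×100, against DMSO controls, giving EC50 and EC90. Cells: Clone A or ET-lunet, seeded 1500 or 3000/well, exposed 4 days at 37 °C, 5% CO2, 0.5% DMSO.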

The nature of data set [1]: Cell cytotoxicity assay (MTS), CC90 as reported in Table 1, cell line not stated. The class given is cell-based. Particulars: human; MTS assay; 8 days incubation; cell line not given. An outline of the steps:
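MTS read-out (490 nm, 2 h dye step) after 8-day exposure at 37° C. Huh7, HepG2, BxPC3 were seeded at 2×10^3 and CEM at 5×10^3 cells/well, with compound serially diluted from 100 μM. CC90 comes from comparison with untreated control wells.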

The mark [2] stands for this setting: HCV replicon 1b, 4 days incubation.

Where two headings read alike, the source gives them in different places.

For the molecule `CC(C)C[C@H]1C(=O)N[C@@H](C2CCC2)CN1C(=O)c1noc(-c2ccc(F)cc2)n1` [Compound 467, (3S,6S)-6-cyclobutyl-4-(5-(4-fluorophenyl)-1,2,4-oxadiazole-3-carbonyl)-3-isobutylpiperazin-2-one], the EC90 in the data set with HCV Replicon 1b (setting [2]) was 0.25 µM. In addition, in data set [1], the CC90 at 8 days is greater than 10 µM.

In the case of `CSC[C@H]1C(=O)N[C@@H](c2ccccc2)CN1C(=O)c1cc(-c2ccc(F)cc2)on1` [Compound 468, (3R,6S)-4-(5-(4-fluorophenyl)isoxazole-3-carbonyl)-3-((methylthio)methyl)-6-phenylpiperazin-2-one], in the data set on HCV Replicon 1b (setting [2]), the EC90 came to 0.69 µM. In addition, the CC90 at 8 days in data set [1] is greater than 10 µM.

For `O=C1N[C@@H](c2ccccc2)CN(C(=O)[C@@H]2C[C@H]2c2ccc(F)cc2)[C@H]1c1cccs1` [Compound 469, (3R,6S)-4-((1R,2R)-2-(4-fluorophenyl)cyclopropanecarbonyl)-6-phenyl-3-(thiophen-2-yl)piperazin-2-one], the EC90 in the data set with HCV Replicon 1b (setting [2]) was determined as 1.06 µM. Besides, the CC90 at 8 days in data set [1] is greater than 10 µM.

Consider `O=C1N[C@@H](c2ccccc2)CN(C(=O)c2cc(-c3ccc(F)cc3)on2)[C@H]1c1cccs1` [Compound 471, (3R,6S)-4-(5-(4-fluorophenyl)isoxazole-3-carbonyl)-6-phenyl-3-(thiophen-2-yl)piperazin-2-one], for which the EC90 in the data set with HCV Replicon 1b (setting [2]) was 0.57 µM. In data set [1], this molecule registered a CC90 at 8 days greater than 10 µM.

On to `O=C1N[C@@H](c2ccccc2)CN(C(=O)c2noc(-c3ccc(F)cc3)n2)[C@H]1c1cccs1` [Compound 472, (3R,6S)-4-(5-(4-fluorophenyl)-1,2,4-oxadiazole-3-carbonyl)-6-phenyl-3-(thiophen-2-yl)piperazin-2-one], for which the EC90 with HCV Replicon 1b (setting [2]) worked out at 1.2 µM. Moreover, the CC90 at 8 days in data set [1] is greater than 10 µM.

Turning to `CC(C)C[C@H]1C(=O)N[C@H](C2CCOCC2)CN1C(=O)c1noc(-c2ccc(F)cc2)n1` [Compound 473, (3S,6R)-4-(5-(4-fluorophenyl)-1,2,4-oxadiazole-3-carbonyl)-3-isobutyl-6-(tetrahydro-2H-pyran-4-yl)piperazin-2-one], the EC90 in the data set on HCV Replicon 1b (setting [2]) is greater than 10 µM. In addition, the CC90 at 8 days in data set [1] was greater than 10 µM.

Turning to `CC(C)C[C@H]1C(=O)N[C@@H](C2CCOCC2)CN1C(=O)c1noc(-c2ccc(F)cc2)n1` [Compound 474, (3S,6S)-4-(5-(4-fluorophenyl)-1,2,4-oxadiazole-3-carbonyl)-3-isobutyl-6-(tetrahydro-2H-pyran-4-yl)piperazin-2-one], the EC90 with HCV Replicon 1b (setting [2]) amounted to 0.35 µM. In data set [1], the CC90 at 8 days was greater than 10 µM.

With `CC(C)C[C@H]1C(=O)N[C@H](C2CCOCC2)CN1C(=O)[C@@H]1C[C@H]1c1ccc(F)cc1` [Compound 475, (3S,6R)-4-((1R,2R)-2-(4-fluorophenyl)cyclopropanecarbonyl)-3-isobutyl-6-(tetrahy-dro-2H-pyran-4-yl)piperazin-2-one], the EC90 with HCV Replicon 1b (setting [2]) was greater than 10 µM. In data set [1], the CC90 at 8 days was greater than 10 µM.

Turning to `CC(C)C[C@H]1C(=O)N[C@@H](C2CCOCC2)CN1C(=O)[C@@H]1C[C@H]1c1ccc(F)cc1` [Compound 476, (3S,6S)-4-((1R,2R)-2-(4-fluoro-phenyl)cyclopropanecarbonyl)-3-isobutyl-6-(tetrahydro-2H-pyran-4-yl)piperazin-2-one], the EC90 in the data set with HCV Replicon 1b (setting [2]) was 0.23 µM. For the same molecule, in data set [1], the CC90 at 8 days is greater than 10 µM.

For `CC(C)C[C@H]1C(=O)N[C@H](c2ccco2)CN1C(=O)c1cc(-c2ccc(F)cc2)on1` [Compound 483, (3S,6S)-4-(5-(4-fluorophenyl)isoxazole-3-carbonyl)-6-(furan-2-yl)-3-isobutyl-piperazin-2-one], the EC90 with HCV Replicon 1b (setting [2]) was greater than 10 µM. Moreover, the CC90 at 8 days in data set [1] was greater than 10 µM.

For `CC(C)C[C@H]1C(=O)N[C@@H](c2ccco2)CN1C(=O)c1cc(-c2ccc(F)cc2)on1` [Compound 484, (3S,6R)-4-(5-(4-fluorophenyl)isoxazole-3-carbonyl)-6-(furan-2-yl)-3-isobutylpiperazin-2-one], the EC90 in the data set on HCV Replicon 1b (setting [2]) turned out to be 0.18 µM. Also, the CC90 at 8 days in data set [1] is greater than 10 µM.

As for `CC(C)C[C@H]1C(=O)N[C@H](c2ccc(Cl)s2)CN1C(=O)c1cc(-c2ccc(F)cc2)on1` [Compound 485, (3S,6S)-6-(5-chlorothiophen-2-yl)-4-(5-(4-fluorophenyl)isoxazole-3-carbonyl)-3-isobutylpiperazin-2-one], the EC90 in the data set on HCV Replicon 1b (setting [2]) was greater than 10 µM. This molecule gave a CC90 at 8 days in data set [1] greater than 10 µM.

In the case of `CC(C)C[C@H]1C(=O)N[C@@H](c2ccc(Cl)s2)CN1C(=O)c1cc(-c2ccc(F)cc2)on1` [Compound 488, (3S,6R)-6-(5-chlorothiophen-2-yl)-4-(5-(4-fluorophenyl)isoxazole-3-carbonyl)-3-isobutylpiperazin-2-one], the EC90 with HCV Replicon 1b (setting [2]) was 0.7 µM. The molecule further displayed a CC90 at 8 days in data set [1] greater than 10 µM.

Regarding `CCC[C@H]1C(=O)N[C@@H](c2cccs2)CN1C(=O)c1cc(-c2ccc(F)cc2)on1` [Compound 491, (3S,6R)-4-(5-(4-fluorophenyl)isoxazole-3-carbonyl)-3-propyl-6-(thiophen-2-yl)piper-azin-2-one], the EC90 in the data set with HCV Replicon 1b (setting [2]) amounted to 0.25 µM. This molecule came in with a CC90 at 8 days in data set [1] greater than 10 µM.

Turning to `CCC[C@H]1C(=O)N[C@@H](c2cccs2)CN1C(=O)[C@@H]1C[C@H]1c1ccc(F)cc1` [Compound 495, (3S,6R)-4-((1R,2R)-2-(4-fluorophenyl)cyclopropanecarbonyl)-3-propyl-6-(thiophen-2-yl)piperazin-2-one], in the data set with HCV Replicon 1b (setting [2]), the EC90 came out at 0.29 µM. For the same molecule, in data set [1], the CC90 at 8 days is greater than 10 µM.

`CC(C)C[C@H]1C(=O)N[C@@H](c2ccsc2Cl)CN1C(=O)[C@@H]1C[C@H]1c1ccc(F)cc1` [Compound 500, (3S,6S)-6-(2-chlorothiophen-3-yl)-4-((1R,2R)-2-(4-fluorophenyl)cyclopropane-carbonyl)-3-isobutylpiperazin-2-one]: the EC90 in the data set with HCV Replicon 1b (setting [2]) came to 0.022 µM. Also, the CC90 at 8 days in data set [1] is greater than 10 µM.

Consider `C=C[C@H]1CN(C(=O)c2cc(-c3ccc(F)cc3)on2)[C@@H](CC(C)C)C(=O)N1` [Compound 506, (3S,6S)-4-(5-(4-fluorophenyl)isoxazole-3-carbonyl)-3-isobutyl-6-vinylpiperazin-2-one], for which the EC90 in the data set with HCV Replicon 1b (setting [2]) stood at 1.05 µM. The CC90 at 8 days in data set [1] is greater than 10 µM.

Consider `CC(C)C[C@H]1C(=O)N[C@@H](C(=O)N(C)C)CN1C(=O)c1cc(-c2ccc(F)cc2)on1` [Compound 507, (2R,5S)-4-(5-(4-fluorophenyl)isoxazole-3-carbonyl)-5-isobutyl-N,N-dimethyl-6-oxopiperazine-2-carboxamide], for which, in the data set with HCV Replicon 1b (setting [2]), the EC90 amounted to 0.84 µM. Also, the CC90 at 8 days in data set [1] was greater than 10 µM.

`CNC(=O)[C@H]1CN(C(=O)c2cc(-c3ccc(F)cc3)on2)[C@@H](CC(C)C)C(=O)N1` [Compound 508, (2R,5S)-4-(5-(4-fluorophenyl)isoxazole-3-carbonyl)-5-isobutyl-N-methyl-6-oxopiperazine-2-carboxamide]: the EC90 with HCV Replicon 1b (setting [2]) was greater than 10 µM. For the same molecule, the CC90 at 8 days in data set [1] was greater than 10 µM.

For `CC(C)C[C@H]1C(=O)N[C@@H](c2ncco2)CN1C(=O)c1cc(-c2ccc(F)cc2)on1` [Compound 510, (3S,6R)-4-(5-(4-fluorophenyl)isoxazole-3-carbonyl)-3-isobutyl-6-(oxazol-2-yl)piperazin-2-one], the concentration for an effect of 90% (EC90) in the data set with HCV Replicon 1b (setting [2]) is greater than 10 µM. For the same molecule, the CC90 at 8 days in data set [1] was greater than 10 µM.

Turning to `CC(C)C[C@H]1C(=O)N[C@@H](c2ccccc2)CN1C(C)c1cc(-c2ccc(F)cc2)on1` (stereo partly drawn) [Compound 511, (3S,6S)-4-(1-(5-(4-fluorophenyl)isoxazol-3-yl)ethyl)-3-isobutyl-6-phenylpiperazin-2-one], the EC90 in the data set with HCV Replicon 1b (setting [2]) was 0.45 µM. The CC90 at 8 days in data set [1] was greater than 10 µM.

On to `CC(C)C[C@H]1C(=O)N[C@@H](c2cnco2)CN1C(=O)c1cc(-c2ccc(F)cc2)on1` [Compound 516, (3S,6R)-4-(5-(4-fluorophenyl)isoxazole-3-carbonyl)-3-isobutyl-6-(oxazol-5-yl)piperazin-2-one], for which the EC90 in the data set with HCV Replicon 1b was 0.11 µM. The molecule also showed a CC90 at 8 days in data set [1] greater than 10 µM.

As for `CC(C)C[C@H]1C(=O)N[C@@H](c2cnco2)CN1C(=O)[C@@H]1C[C@H]1c1ccccc1` [Compound 517, (3S,6R)-3-isobutyl-6-(oxazol-5-yl)-4-((1R,2R)-2-phenylcyclopropane-carbonyl)piperazin-2-one], the EC90 with HCV Replicon 1b (setting [2]) is 0.19 µM. The CC90 at 8 days in data set [1] was greater than 10 µM.

Consider `CC(C)C[C@H]1C(=O)N[C@@H](c2cnco2)CN1C(=O)c1noc(-c2ccc(F)cc2)n1` [Compound 518, (3S,6R)-4-(5-(4-fluorophenyl)-1,2,4-oxadiazole-3-carbonyl)-3-isobutyl-6-(oxazol-5-yl)piperazin-2-one], for which the EC90 in the data set on HCV Replicon 1b (setting [2]) turned out to be 0.058 µM. In data set [1], this molecule registered a CC90 at 8 days greater than 10 µM.

On to `CC(C)C[C@H]1C(=O)N[C@@H](c2cnco2)CN1C(=O)c1cc(-c2ccc(F)cc2)no1` [Compound 519, (3S,6R)-4-(3-(4-fluorophenyl)isoxazole-5-carbonyl)-3-isobutyl-6-(oxazol-5-yl)piperazin-2-one], for which the EC90 in the data set with HCV Replicon 1b (setting [2]) was determined as 0.11 µM. The same molecule registered a CC90 at 8 days in data set [1] greater than 10 µM.

As to `CC(C)C[C@H]1C(=O)N[C@@H](c2cnco2)CN1C(=O)/C=C/c1ccc(F)cc1F` [Compound 520, (3S,6R)-4-((E)-3-(2,4-difluorophenyl)acryloyl)-3-isobutyl-6-(oxazol-5-yl)piperazin-2-one], the EC90 with HCV Replicon 1b (setting [2]) stood at 0.47 µM. Further, the CC90 at 8 days in data set [1] was greater than 10 µM.

Turning to `CC(C)C[C@H]1C(=O)N[C@@H](c2cnco2)CN1C(=O)c1cc(-c2ccc(F)cc2F)on1` [Compound 522, (3S,6R)-4-(5-(2,4-difluorophenyl)isoxazole-3-carbonyl)-3-isobutyl-6-(oxazol-5-yl)piperazin-2-one], the EC90 with HCV Replicon 1b (setting [2]) was 0.27 µM. This molecule also had a CC90 at 8 days in data set [1] greater than 10 µM.
